Experimental data taken from patent US20260124201A1, “CYCLOPENTANE COMPOUND” (Kissei Pharmaceutical Co., Ltd., priority 2022, published 2026).

Assays:
human OX2R = biological target: T1, human OX2R (Homo sapiens, UniProt O43614); assay: Measurement of OX2R agonist activity (intracellular calcium concentration change, Fluo4-AM, FDSS 7000); assay type: cell-based; conditions: compound concentration 10 μM; human OX2R-expressing CHO-K1 cells; 1 μM human orexin A peptide = 100%, medium alone = 0%
T1 construct: expressed in transfected cells
T1 sequence (O43614 1-444): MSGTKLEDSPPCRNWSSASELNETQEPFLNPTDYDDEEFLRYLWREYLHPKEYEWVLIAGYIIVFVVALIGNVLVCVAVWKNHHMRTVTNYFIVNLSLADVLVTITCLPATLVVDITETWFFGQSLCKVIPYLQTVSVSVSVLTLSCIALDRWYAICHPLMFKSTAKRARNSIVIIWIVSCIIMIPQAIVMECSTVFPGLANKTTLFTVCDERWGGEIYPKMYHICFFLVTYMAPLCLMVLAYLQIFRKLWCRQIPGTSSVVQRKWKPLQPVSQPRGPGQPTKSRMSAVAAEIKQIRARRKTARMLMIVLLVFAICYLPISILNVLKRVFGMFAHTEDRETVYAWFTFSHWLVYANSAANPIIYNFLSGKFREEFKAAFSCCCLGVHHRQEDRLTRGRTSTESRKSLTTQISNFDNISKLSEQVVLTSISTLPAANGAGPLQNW
In short: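 Stable human OX2R-expressing CHO-K1 cells, loaded 45 min at 37 °C with 1.14 μM Fluo4-AM plus probenecid in HEPES-buffered HBSS pH 7.4; calcium fluorescence read by FDSS. Activation at 10 μM compound expressed relative to 1 μM human orexin A (100%) and medium alone (0%).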

NT1 patients = conditions: clinical study; cited from earlier work
wild-type mice = conditions: subcutaneous administration; cited from earlier work

Structure (SMILES) | Act. (%): activation rate of test substance (human OX2R) | wakefulness and daytime sleepiness (NT1 patients) | wake time (wild-type mice)
CCS(=O)(=O)N[C@@H]1C[C@@](Cc2ccc(Cl)c(-c3ncc(F)cn3)c2)(C(=O)N(C)OC)C[C@@H]1F [Example 63, (1R,3R,4S)-1-(4-Chloro-3-(5-fluoropyrimidin-2-yl)benzyl)-3-(ethylsulfonamido)-4-fluoro-N-methoxy-N-methylcyclopentane-1-carboxamide] | 96% |  | 
CON(C)C(=O)[C@@]1(Cc2ccc(F)c(-c3ncc(F)cn3)c2)C[C@@H](F)[C@H](NS(C)(=O)=O)C1 [Example 64, (1R,3R,4R)-3-Fluoro-1-(4-fluoro-3-(5-fluoropyrimidin-2-yl)benzyl)-N-methoxy-N-methyl-4-(methylsulfonamido)cyclopentane-1-carboxamide] | 101% |  | 
CON(C)C(=O)[C@]1(Cc2cccc(-c3ncccn3)c2)C[C@@H](NS(C)(=O)=O)C(F)(F)C1 [Example 65, (1R,4R)-3,3-Difluoro-N-methoxy-N-methyl-4-(methylsulfonamido)-1-(3-(pyrimidin-2-yl)benzyl)cyclopentane-1-carboxamide] | 86% |  | 
CON(C)C(=O)[C@]1(Cc2cccc(-c3ncc(F)cn3)c2)C[C@@H](NS(C)(=O)=O)C(F)(F)C1 [Example 66, (1R,4R)-3,3-Difluoro-1-(3-(5-fluoropyrimidin-2-yl)benzyl)-N-methoxy-N-methyl-4-(methylsulfonamido)cyclopentane-1-carboxamide] | 95% |  | 
CO[C@H]1C[C@](Cc2cccc(-c3ncc(F)cn3)c2)(C(=O)N(C)OC)C[C@H]1NS(C)(=O)=O [Example 67, (1R,3S,4R)-1-(3-(5-Fluoropyrimidin-2-yl)benzyl)-N,3-dimethoxy-N-methyl-4-(methylsulfonamido)cyclopentane-1-carboxamide] | 88% |  | 
CO[C@@H]1C[C@](Cc2cccc(-c3ncc(F)cn3)c2)(C(=O)N(C)OC)C[C@H]1NS(C)(=O)=O [Example 68] | 91% |  | 
COC(=O)N1CCC[C@H](NS(C)(=O)=O)[C@@H]1CO[C@H]1CC[C@@H](c2ccccc2)CC1 [TAK-925] |  | maintaining wakefulness and reducing daytime sleepiness | prolonging of wake time
